The source of these data is US20080248008A1, “Inhibitors of Protein Kinase a Anchoring” (priority 2004, published 2008).

For test [1], the target named is PKA-RIIα (Homo sapiens, UniProt P13861). The experiment in a line: Displacement of PKA-RII from the particulate fraction in T cells. The class given is cell-based. Further details: endogenous in cells; host or cells: human peripheral blood CD3+ T cells. The conditions noted are these: increasing concentrations, relative to PKCα. As for the experimental part:
Displacement of PKA-RII from the particulate Fraction in T-cells. Negatively selected CD3^+ T-cells (20×10^6/3 ml/well) were cultured in 6-well plates with 0-50 μM Arg11-SuperAKAPIS (or 0-50 μM M3-Arg11) for 12 hours. Cells were lysed in 250 μl lysis buffer (50 mM Tris pH 7.4, 100 mM NaCl, 5 mM EDTA, 50 mM NaF, 10 mM Na-pyrofosfat, 1 mM Na3VO4, 1 mM PMSF, 0.7% triton X-100) and centrifuged at 14 000×g for 10 min. The sedimented proteins were resuspended in loading dye before being resolved by SDS/PAGE and detected by immunoblotting.
To assess the effect of MEME3-Arg11 on anchoring of PKA type II, T cells were treated with MEME3-Arg11 or Arg11-super-AKAP-is (as a positive control) and particulate fractions were isolated, followed by 10% PAGE and blotting onto a PVDF membrane (fraction no. 2-4, FIG. 17 in upper panel) and analysed by immunoblotting using antibodies against PKA-RIIα (FIG. 17, upper panel). The levels of PKA-RIIα in the particulate fractions were measured by densitometry of the autoradiograms (lower panel). The level of PKA-RIIα was set relative to that of the internal standard PKCα.

A further test has as its target T1, RII (Homo sapiens, UniProt P13861).
T1 construct: endogenous in cells; host or cells: HEK293
The experiment in a line: Co-immunoprecipitation with RII in transfected HEK293 cells. The conditions noted are these: HEK293 cells transfected with GFP-fusion constructs. The class given is cell-based. As for the experimental part: HEK293 cells at […] were transfected with ten μg of plasmid DNA (GFP, GFP-MEME3 or GFP-Scrambled MEME3) by using the CaCl2 method. Cells were lysed after 30 hours in lysis buffer (20 mM Hepes, pH 7.5/150 mM NaCl/1 mM EDTA/1% Triton X-100) with protease inhibitors (Complete Mini, EDTA-free tablets, Roche).
Immunoblot analysis. Immunocomplexes and lipid raft fractions were analysed on a 10, 15% or 4-20% PAGE and blotted onto PVDF membranes. The filters were blocked in 5% non-fat dry milk in TBST for 30 minutes at RT, incubated 1 hour at RT (or overnight at 4° C.) with primary antibodies, washed four times 5 minutes in TBST with 0.1% Tween-20 and incubated with a horseradish-peroxidase-conjugated secondary antibody. Blots were developed by using Supersignal West Dura Extended Duration Substrate or Supersignal West Pico substrate (Pierce).
Antibodies. RI or RII were immunoprecipitated with polyclonal antibodies against human RI or human RII at a 3 μg/ml dilution (Santa Cruz Biotechnology). MEME3 or scrambled peptide was immunoprecipitated with 1.5 μl of anti-GFP antiserum (Invitrogen). […]
Immunocomplexes were analysed on 10% PAGE (B and C) or 15% PAGE (D) and subjected to Western blotting using anti-GFP, anti-RI or anti-RII as indicated and blotted onto PVDF membranes. […]

Test [2] has as its target T2, PKA-RIIα (Mus musculus, UniProt P12367).
T2 construct: host or cells: mouse Y-1 adrenocortical cells (lysate)
The test is described as follows: Solid phase immobilization from Y-1 adrenal cell lysate, PKA-RIIα. The class given is binding. The conditions noted are these: overnight. As for the experimental part: Solid phase assay and cell lysate. 5×10^6 Y1 cells or 20×10^6 Jurkat T cells lysed in 150 mM NaCl, 1% NP-40, 0.5% deoxycholate, 0.1% SDS and 50 mM Tris HCl (7.8) were incubated overnight at 4° C. with MEME3 and SM3 peptides synthesized on membranes (Autospot, Intavis, AG). The membranes were washed two times for 10 minutes in lysis buffer and thereafter in high salt lysis buffer (1 M NaCl) before boiling in SDS-PAGE loading buffer.
A solid phase immobilization assay (schematic illustration in FIG. 24, left panel) was used to analyse endogenous PKA binding to MEME3. MEME3 and SM3 peptides synthesized in triplicate on membranes were incubated overnight in lysate from Y-1 adrenal cells. Thereafter bound proteins were eluted, subjected to 10% PAGE and analysed by immunoblotting using specific antibodies against PKA-RIα, PKA-C and PKA-RIIα subunits.

T1 sequence (P13861 whole entry): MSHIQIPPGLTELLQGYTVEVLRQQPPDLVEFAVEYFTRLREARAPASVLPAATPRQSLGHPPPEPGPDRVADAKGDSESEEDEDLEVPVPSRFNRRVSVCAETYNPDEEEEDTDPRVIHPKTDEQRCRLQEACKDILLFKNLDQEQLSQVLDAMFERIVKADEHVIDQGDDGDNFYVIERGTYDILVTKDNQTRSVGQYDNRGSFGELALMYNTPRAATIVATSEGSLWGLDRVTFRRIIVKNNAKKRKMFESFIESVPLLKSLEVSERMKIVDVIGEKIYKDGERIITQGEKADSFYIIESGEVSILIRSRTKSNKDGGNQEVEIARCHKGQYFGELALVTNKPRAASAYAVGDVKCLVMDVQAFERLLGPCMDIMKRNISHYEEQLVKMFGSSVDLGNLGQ
Chain of PKA-RIIα (Homo sapiens, UniProt P13861) (P13861 whole entry): as above
T2 sequence (P12367 whole entry): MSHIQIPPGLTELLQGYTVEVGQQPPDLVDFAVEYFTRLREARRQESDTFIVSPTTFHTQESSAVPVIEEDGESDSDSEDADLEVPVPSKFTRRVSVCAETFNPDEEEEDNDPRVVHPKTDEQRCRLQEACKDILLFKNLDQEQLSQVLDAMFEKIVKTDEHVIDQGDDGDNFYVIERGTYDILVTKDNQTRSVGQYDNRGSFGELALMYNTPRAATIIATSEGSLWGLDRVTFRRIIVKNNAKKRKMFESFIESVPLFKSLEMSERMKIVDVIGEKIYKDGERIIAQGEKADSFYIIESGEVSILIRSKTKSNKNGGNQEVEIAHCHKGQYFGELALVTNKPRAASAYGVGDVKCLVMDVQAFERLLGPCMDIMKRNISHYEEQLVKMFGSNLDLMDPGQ

“LEQYANQLADQIIKEATERRRRRRRRRrr [MEME3-Arg11]”: the “PKA-RIIα in particulate fraction” value at PKA-RIIα [1] is “No reduction in PKA-RIIα”.

In the case of `CC[C@H](C)[C@H](NC(=O)[C@H](CCC(N)=O)NC(=O)[C@H](CC(=O)O)NC(=O)[C@H](C)NC(=O)[C@H](CC(C)C)NC(=O)[C@H](CCC(N)=O)NC(=O)[C@H](CC(N)=O)NC(=O)[C@H](C)NC(=O)[C@H](Cc1ccc(O)cc1)NC(=O)[C@H](CCC(N)=O)NC(=O)[C@H](CCC(=O)O)NC(=O)[C@@H](N)CC(C)C)C(=O)N[C@H](C(=O)N[C@@H](CCCCN)C(=O)N[C@@H](CCC(=O)O)C(=O)N[C@@H](C)C(=O)N[C@H](C(=O)N[C@@H](CCC(=O)O)C(=O)N[C@@H](CCCCNC(=O)c1ccc2c(c1)C(=O)OC21c2ccc(O)cc2Oc2cc(O)ccc21)C(N)=O)[C@@H](C)O)[C@@H](C)CC` [MEME3], the “co-precipitation with RII” value at RII is listed as “not with RII”. “IEKELAQQYQNADAITLE [SM3, scrambled MEME3 negative control peptide, reference compound]”: in the test with PKA-RIIα [2], the “immobilization of PKA-RIIα” value is reported as “Neither PKA-RIα, PKA-C nor PKA-RIIα were immobilized”.
